From patent publication US20070060621A1, “Methods and compositions for the administration of prodrugs of proton pump inhibitors” (priority 2004, published 2007)

Legend:
Assay type in all cases: physicochemical
[1] = Hygroscopicity of compound 1 on storage
Experimental: The physicochemical properties of compound 1 were analyzed.

[2] = Stability profile at 25° C. in buffered aqueous solutions
Description: The base-catalyzed degradation is unexpected because the commercial proton pump inhibitors are stabilized in aqueous solutions by adjusting the solution to high pH.

[3] = Stability of compound 1 at 0.02 mg/mL at 25° C. in water, NaCl salt and phosphate buffer; settings: for % Remaining: 25° C., 0.02 mg/mL; for Half Life (t½) / Rate Constant (k) / Shelf life (t90%): first order decay from 3-29 days
Experimental: FIG. 1 is a plot of the % of the original concentration of compound remaining over time. The original concentration of compound 1 was 0.02 mg/mL, and stability was assessed at 25° C. in 1) water, 2) NaCl salt (μ=0.15), 3) NaCl salt (μ=0.5), 4) phosphate buffer (pH 7.0, μ=0.15), and 5) phosphate buffer (pH 7.0, μ=0.5).
FIG. 2 is a log plot of the data of FIG. 1.
The stability of compound 1 at a concentration of 0.02 mg/mL in water at 25° C. was assessed in 1) water, 2) NaCl salt (μ=0.15), 3) NaCl salt (μ=0.5), 4) phosphate buffer (pH 7.0, μ=0.15), and 5) phosphate buffer (pH 7.0, μ=0.5). For the buffer solutions, the ionic strength (μ) was adjusted using sodium chloride, and the buffer concentration of the two solutions was equal (0.1 M). The amount of remaining compound 1 is presented as the % of the original concentration of 0.02 mg/mL for each sample in Table 3a and in FIG. 1.

[4] = pH 3, Citric Acid (0.1 M)/Na2HPO4 (0.2 M)
[5] = pH 5, Citric Acid (0.1 M)/Na2HPO4 (0.2 M)
[6] = pH 7, sodium phosphate (0.1-0.2 M)
[7] = pH 7.4, sodium phosphate (0.1-0.2 M)
[8] = pH 9, sodium phosphate (0.1-0.2 M)
[9] = pH 10, sodium phosphate (0.1-0.2 M)
[10] = Na phosphate buffer, u = 0.15, pH 7.0, 25° C.
[11] = Na phosphate buffer, u = 0.5, pH 7.0, 25° C.

hygroscopicity ([1]; 14 days of storage at 25° C. at 75% relative humidity): hygroscopic | weight gain ([1]; after 14 days of storage at 25° C. at 75% relative humidity): 9% | Degradation Rate Constant (k) ([2]; No buffer): 0.0002 h⁻¹ | Half-life (t1/2) ([2]; No buffer): 119.32 days | Shelf life (t90%) ([2]; No buffer): 435.4 h | Degradation Rate Constant (k) ([2]; pH 1, 0.1 M HCl): 0.194 h⁻¹ | Half-life (t1/2) ([2]; pH 1, 0.1 M HCl): 0.15 days | Shelf life (t90%) ([2]; pH 1, 0.1 M HCl): 0.5 h | Degradation Rate Constant (k) [2, 4]: 0.009 h⁻¹ | Half-life (t1/2) [2, 4]: 3.25 days | Shelf life (t90%) [2, 4]: 11.9 h | Degradation Rate Constant (k) [2, 5]: 0.008 h⁻¹ | Half-life (t1/2) [2, 5]: 3.72 days | Shelf life (t90%) [2, 5]: 13.6 h | Degradation Rate Constant (k) [2, 6]: 0.002 h⁻¹ | Half-life (t1/2) [2, 6]: 11.95 days | Shelf life (t90%) [2, 6]: 43.6 h | Degradation Rate Constant (k) [2, 7]: 0.002 h⁻¹ | Half-life (t1/2) [2, 7]: 12.13 days | Shelf life (t90%) [2, 7]: 44.3 h | Degradation Rate Constant (k) [2, 8]: 0.030 h⁻¹ | Half-life (t1/2) [2, 8]: 0.958 days | Shelf life (t90%) [2, 8]: 3.5 h | Degradation Rate Constant (k) [2, 9]: 0.298 h⁻¹ | Half-life (t1/2) [2, 9]: 0.0958 days | Shelf life (t90%) [2, 9]: 0.4 h | % Remaining ([3]; Day 1, NaCL, u = 0.15 (pH 6.6)): 84.134% | % Remaining ([3]; Day 1, NaCL, u = 0.5 (pH 6.2)): 87.598% | % Remaining ([3]; Day 1, Phosphate buffer, u = 0.15 (pH 7.0)): 96.294% | % Remaining ([3]; Day 1, Phosphate buffer, u = 0.5 (pH 7.0)): 96.709% | % Remaining ([3]; Day 1, Water (pH 7.2)): 92.212% | % Remaining ([3]; Day 3, NaCL, u = 0.15 (pH 6.6)): 76.960% | % Remaining ([3]; Day 3, NaCL, u = 0.5 (pH 6.2)): 80.750% | % Remaining ([3]; Day 3, Phosphate buffer, u = 0.15 (pH 7.0)): 90.597% | % Remaining ([3]; Day 3, Phosphate buffer, u = 0.5 (pH 7.0)): 90.087% | % Remaining ([3]; Day 3, Water (pH 7.2)): 86.085% | % Remaining ([3]; Day 4, NaCL, u = 0.15 (pH 6.6)): 77.037% | % Remaining ([3]; Day 4, NaCL, u = 0.5 (pH 6.2)): 78.348% | % Remaining ([3]; Day 4, Phosphate buffer, u = 0.15 (pH 7.0)): 87.434% | % Remaining ([3]; Day 4, Phosphate buffer, u = 0.5 (pH 7.0)): 85.994% | % Remaining ([3]; Day 4, Water (pH 7.2)): 86.410% | % Remaining ([3]; Day 7, NaCL, u = 0.15 (pH 6.6)): 75.398% | % Remaining ([3]; Day 7, NaCL, u = 0.5 (pH 6.2)): 76.513% | % Remaining ([3]; Day 7, Phosphate buffer, u = 0.15 (pH 7.0)): 80.995% | % Remaining ([3]; Day 7, Phosphate buffer, u = 0.5 (pH 7.0)): 76.165% | % Remaining ([3]; Day 7, Water (pH 7.2)): 84.569% | % Remaining ([3]; Day 9, NaCL, u = 0.15 (pH 6.6)): 71.861% | % Remaining ([3]; Day 9, NaCL, u = 0.5 (pH 6.2)): 74.482% | % Remaining ([3]; Day 9, Phosphate buffer, u = 0.15 (pH 7.0)): 76.176% | % Remaining ([3]; Day 9, Phosphate buffer, u = 0.5 (pH 7.0)): 70.768% | % Remaining ([3]; Day 9, Water (pH 7.2)): 84.452% | % Remaining ([3]; Day 11, NaCL, u = 0.15 (pH 6.6)): 73.763% | % Remaining ([3]; Day 11, NaCL, u = 0.5 (pH 6.2)): 74.312% | % Remaining ([3]; Day 11, Phosphate buffer, u = 0.15 (pH 7.0)): 74.520% | % Remaining ([3]; Day 11, Phosphate buffer, u = 0.5 (pH 7.0)): 67.826% | % Remaining ([3]; Day 11, Water (pH 7.2)): 86.930% | % Remaining ([3]; Day 13, NaCL, u = 0.15 (pH 6.6)): 72.390% | % Remaining ([3]; Day 13, NaCL, u = 0.5 (pH 6.2)): 71.691% | % Remaining ([3]; Day 13, Phosphate buffer, u = 0.15 (pH 7.0)): 68.020% | % Remaining ([3]; Day 13, Water (pH 7.2)): 83.661% | % Remaining ([3]; Day 15, NaCL, u = 0.15 (pH 6.6)): 67.858% | % Remaining ([3]; Day 15, NaCL, u = 0.5 (pH 6.2)): 68.167% | % Remaining ([3]; Day 15, Phosphate buffer, u = 0.15 (pH 7.0)): 62.389% | % Remaining ([3]; Day 15, Phosphate buffer, u = 0.5 (pH 7.0)): 52.494% | % Remaining ([3]; Day 15, Water (pH 7.2)): 80.913% | % Remaining ([3]; Day 20, NaCL, u = 0.15 (pH 6.6)): 64.953% | % Remaining ([3]; Day 20, NaCL, u = 0.5 (pH 6.2)): 65.173% | % Remaining ([3]; Day 20, Phosphate buffer, u = 0.15 (pH 7.0)): 54.360% | % Remaining ([3]; Day 20, Phosphate buffer, u = 0.5 (pH 7.0)): 44.057% | % Remaining ([3]; Day 20, Water (pH 7.2)): 78.768% | % Remaining ([3]; Day 24, NaCL, u = 0.15 (pH 6.6)): 64.848% | % Remaining ([3]; Day 24, NaCL, u = 0.5 (pH 6.2)): 65.753% | % Remaining ([3]; Day 24, Phosphate buffer, u = 0.15 (pH 7.0)): 50.246% | % Remaining ([3]; Day 24, Phosphate buffer, u = 0.5 (pH 7.0)): 39.181% | % Remaining ([3]; Day 24, Water (pH 7.2)): 79.915% | % Remaining ([3]; Day 29, NaCL, u = 0.15 (pH 6.6)): 62.731% | % Remaining ([3]; Day 29, NaCL, u = 0.5 (pH 6.2)): 62.867% | % Remaining ([3]; Day 29, Phosphate buffer, u = 0.15 (pH 7.0)): 43.321% | % Remaining ([3]; Day 29, Phosphate buffer, u = 0.5 (pH 7.0)): 32.626% | % Remaining ([3]; Day 29, Water (pH 7.2)): 78.412% | Half Life (t½) [3, 10]: 24.063 days | Rate Constant (k) [3, 10]: 0.0288 day⁻¹ | Shelf life (t90%) [3, 10]: 3.658 days | Half Life (t½) [3, 11]: 17.589 days | Rate Constant (k) [3, 11]: 0.0394 day⁻¹ | Shelf life (t90%) [3, 11]: 2.674 days | Half Life (t½) ([3]; NaCl, u = 0.15, pH 6.6, 25° C.): 80.581 days | Rate Constant (k) ([3]; NaCl, u = 0.15, pH 6.6, 25° C.): 0.0086 day⁻¹ | Shelf life (t90%) ([3]; NaCl, u = 0.15, pH 6.6, 25° C.): 12.251 days | Half Life (t½) ([3]; NaCl, u = 0.5, pH 6.6, 25° C.): 75.326 days | Rate Constant (k) ([3]; NaCl, u = 0.5, pH 6.6, 25° C.): 0.0092 day⁻¹ | Shelf life (t90%) ([3]; NaCl, u = 0.5, pH 6.6, 25° C.): 11.452 days | Half Life (t½) ([3]; water, pH 7.2, 25° C.): 161.163 days | Rate Constant (k) ([3]; water, pH 7.2, 25° C.): 0.0043 day⁻¹ | Shelf life (t90%) ([3]; water, pH 7.2, 25° C.): 24.502 days
SMILES: COc1ccc2c(c1)nc([S+]([O-])Cc1ncc(C)c(OC)c1C)n2S(=O)(=O)c1ccc(OCC(=O)O)cc1 (centres unmarked) [Compound 1]
